Results from publication PMC3108181 (Biochimica et biophysica acta, 2011).
Where “and” joins values, the source holds several entries; their conditions need not be identical. Equal entries are not always repeated. Entries after “also recorded” stand apart in the source; their conditions may differ. Where two headings read alike, the source gives them in different places.

Columns and labels:
[1] = target: Complex II: succinate:ubiquinone oxidoreductase (Rattus norvegicus, UniProt P21913+Q641Z9+Q6PCT8+Q920L2); assay: Complex II activity; type: biochemical; conditions: for Effect on complex II activity: lysed rat brain mitochondria, 15 min pre-incubation at room temperature, malonate sensitive activity
Sequence of Complex II: succinate:ubiquinone oxidoreductase (Q920L2 35-656): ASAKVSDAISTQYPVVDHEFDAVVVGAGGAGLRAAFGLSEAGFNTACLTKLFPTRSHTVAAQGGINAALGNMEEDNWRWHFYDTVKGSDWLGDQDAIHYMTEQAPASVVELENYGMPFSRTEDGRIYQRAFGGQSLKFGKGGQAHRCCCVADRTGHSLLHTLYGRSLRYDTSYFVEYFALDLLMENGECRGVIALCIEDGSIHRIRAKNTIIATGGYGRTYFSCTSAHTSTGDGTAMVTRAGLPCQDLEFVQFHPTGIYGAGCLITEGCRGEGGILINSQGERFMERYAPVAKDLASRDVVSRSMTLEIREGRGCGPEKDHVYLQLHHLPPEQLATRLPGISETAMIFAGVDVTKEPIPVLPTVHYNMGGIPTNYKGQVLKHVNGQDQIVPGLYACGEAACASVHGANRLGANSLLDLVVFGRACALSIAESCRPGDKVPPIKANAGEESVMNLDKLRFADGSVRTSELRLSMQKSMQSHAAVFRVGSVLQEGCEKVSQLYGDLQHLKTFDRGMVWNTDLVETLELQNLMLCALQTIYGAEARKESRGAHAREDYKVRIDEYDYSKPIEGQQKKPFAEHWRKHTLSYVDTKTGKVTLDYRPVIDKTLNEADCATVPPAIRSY
Sequence of Complex II: succinate:ubiquinone oxidoreductase (P21913 31-282): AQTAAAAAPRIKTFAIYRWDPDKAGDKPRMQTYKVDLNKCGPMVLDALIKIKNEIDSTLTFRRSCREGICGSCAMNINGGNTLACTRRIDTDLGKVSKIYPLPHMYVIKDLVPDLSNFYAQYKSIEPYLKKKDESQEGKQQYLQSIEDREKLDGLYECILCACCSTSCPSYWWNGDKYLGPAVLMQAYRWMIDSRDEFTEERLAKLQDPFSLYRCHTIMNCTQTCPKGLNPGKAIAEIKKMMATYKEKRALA
Sequence of Complex II: succinate:ubiquinone oxidoreductase (Q641Z9 1-169): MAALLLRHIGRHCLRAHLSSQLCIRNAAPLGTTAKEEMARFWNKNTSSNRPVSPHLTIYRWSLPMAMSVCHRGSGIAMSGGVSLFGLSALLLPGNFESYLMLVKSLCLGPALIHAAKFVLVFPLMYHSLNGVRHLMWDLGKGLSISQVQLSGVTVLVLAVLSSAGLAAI
Sequence of Complex II: succinate:ubiquinone oxidoreductase (Q6PCT8 57-159): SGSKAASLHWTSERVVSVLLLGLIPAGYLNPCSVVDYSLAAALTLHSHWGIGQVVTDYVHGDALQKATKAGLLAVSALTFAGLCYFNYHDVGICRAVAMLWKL

[2] = test system: Complex III: ubiquinol: ferricytochrome C oxidoreductase; assay: Complex III activity in lysed rat brain mitochondria; type: biochemical; conditions: for Inhibition of complex III activity: myxothiazol (60uM) and antimycin A (0.002mg/ml) together, parallel control
[3] = test system: Complex I: NADH:ubiquinone oxidoreductase; assay: Complex I activity in lysed rat brain mitochondria; type: biochemical; conditions: for Effect on complex I activity: lysed rat brain mitochondria, 30 min pre-incubation (same with no pre-incubation)
[4] = test system: Complex IV: ferrocytochrome C oxidase:oxygen oxidoreductase; assay: Complex IV activity in lysed rat brain mitochondria; type: biochemical; conditions: for Prevention of the complex IV inhibition observed with DAH: (2U) SOD plus (2U) Cat, 10 uM pargyline and 10 uM clorgyline, DTT 50 uM, data not shown; for Effect on complex IV activity: lysed rat brain mitochondria, 15 min pre-incubation at room temperature
complex I = conditions: cited from earlier work
[5] = test system: Complex II/III: succinate:cytochrome C-oxidoreductase; assay: Complex II/III activity in lysed rat brain mitochondria; type: biochemical
complex IV = conditions: cited from earlier work; for Inhibition of complex IV: 400 uM DA, 2 hrs of incubation
[6] = test system: Complex I/III: NADH:cytochrome C-oxidoreductase; assay: Complex I/III activity in lysed rat brain mitochondria; type: biochemical
[7] = test system: NADH-Oxidase (complexes I, III and IV); assay: NADH-oxidase activity in lysed rat brain mitochondria; type: biochemical
[8] = read-out: Inhibition of complex II activity

O=C(O)CC(=O)O [malonate, reference compound]
Inhibition of complex II activity ([1]; malonate 10mM, parallel control): 90–95%

CCCCCC[C@H]1C(=O)O[C@H](C)[C@H](NC(=O)c2cccc(NC=O)c2O)C(=O)O[C@@H](C)[C@@H]1OC(=O)CC(C)C [antimycin A]
Inhibition of complex III activity [2]: ≥ 95%

catalase
Prevention of DAQ mediated inhibition of complex I ([3]; 50 uM DAQ plus SOD [2U] and catalase [1U] together): did not prevent | Prevention of the complex IV inhibition observed with DAH ([4]; 1 mM DAH): not prevented

C#CCN(C)CCCOc1ccc(Cl)cc1Cl [clorgyline, reference compound]
Prevention of the complex IV inhibition observed with DAH ([4]; 1 mM DAH): not prevented

CC(=O)N(O)CCCCCNC(=O)CCC(=O)N(O)CCCCCNC(=O)CCC(=O)N(O)CCCCCN [desferoxamine, reference compound]
Attenuation of DA mediated inhibition of complex I activity (complex I): partially attenuated

O=C(O)Cc1ccc(O)c(O)c1 [DOPAC-H, 3,4-dihydroxyphenylacetic acid]
Effect on complex I activity [3]: not affected; also recorded: No effect at 1mM | Effect on complex II activity [1]: not significantly affected; also recorded: not attenuated; also recorded: No effect at 1mM | Effect on complex IV activity [4]: not affected; also recorded: No effect at 1mM | Effect on complex II/III activity ([5]; lysed rat brain mitochondria, 15 min exposure at room temperature, inhibitor corrected rates): did not significantly inhibit | Effect on complex IV activity (complex IV; 400 uM DOPAC, rat brain mitochondria, 2 hr pre-incubation): only marginal effects

NCCc1ccc(O)c(O)c1 [DAH, dopamine]
Effect on complex I activity [3]: not affected; also recorded: No effect at 1mM | Effect on complex II activity [1]: Significantly inhibited at 500 uM and 1mM | inhibition at 500 µM [1, 8]: 32.7 ± 2% | inhibition at 1000 µM [1, 8]: 41.9 ± 5.5% | Complex IV activity, % of control ([4]; 1 mM DAH, concluded to be an artifact (back reaction with oxidized cytochrome C)): 61 % of control | Effect on complex IV activity [4]: Inhibited at 1mM due to artifactual competing back reaction between oxidized cytochrome C and reduced dopamine | Complex I/III activity, mean % of control ([6]; 200 uM DA plus tyrosinase (25U) alone (DAQ), ± sem): 7 % of control | Effect on complex II/III activity [5]: inhibited complex II/III activity to a similar extent as was observed with complex II alone | IC50 (complex I; read-out: IC50 for inhibition of complex I): 8 to 12 µM and 8.12 µM | Inhibition of complex IV (complex IV; ref 29): 62.8% | Inhibition of complex IV (complex IV; ref 30): 57% | Effect on complex IV (complex IV; DA up to 1mM, 1 min incubation): no inhibition

O[C@@H](CS)[C@@H](O)CS [DTT, dithioreitol, reference compound]
Prevention of the complex IV inhibition observed with DAH ([4]; 1 mM DAH): not prevented

C#CCN(C)Cc1ccccc1 [pargyline, reference compound]
Prevention of the complex IV inhibition observed with DAH ([4]; 1 mM DAH): not prevented

CO/C(=C/C(N)=O)[C@H](C)[C@H](/C=C/c1csc(-c2csc([C@@H](C)/C=C/C=C/C(C)C)n2)n1)OC [myxothiazol]
Inhibition of complex III activity [2]: ≥ 95%

C=C(C)[C@H]1Cc2c(ccc3c2O[C@@H]2COc4cc(OC)c(OC)cc4[C@@H]2C3=O)O1 [rotenone, reference compound]
Inhibition of NADH-oxidase activity [7]: ≥ 90% | Inhibition of complex I/III activity [6]: ≥ 95%

O=C(O)CC1=CC(=O)C(=O)C=C1 [DOPAC-Q]
Effect on complex II activity [1]: did not attenuate; also recorded: No effect up to 400 uM | IC50 ([2]; read-out: IC50 for inhibition of complex III activity, 15 min pre-incubation at room temperature, mean ± SEM): 110 µM | Effect on complex IV activity [4]: did not inhibit; also recorded: No effect up to 400 uM
